Results from paper PMC8800111 (The Journal of Biological Chemistry, 2021).

Columns and labels:
[1] = system: nuclear pSTAT3 and total STAT3 in U3A cells; assay: Nuclear and cytoplasmic fractionation immunoblotting in OSM-stimulated U3A cells; type: cell-based, human; conditions: 10 μM 1 h, 10 ng/ml OSM 30 min
Procedure: It should be noted that, given the variability inherent in chromatin immunoprecipitation (IP), few of the individual changes in binding reached statistical significance. However, the trend in each of the five genes was identical.
B, MDA-MB-468 cells were treated with 5 μM PYR for 24 h. Nuclear and cytoplasmic fractions were analyzed by immunoblotting with the indicated antibodies. PARP and tubulin were used as nuclear and cytoplasmic markers, respectively. C, U3A human fibrosarcoma cells stably expressing STAT3-dependent luciferase were pretreated with 10 μM PYR for 1 h and stimulated with 10 ng/ml oncostatin M (OSM) for 30 min. Nuclear and cytoplasmic fractions were analyzed by immunoblotting with the indicated antibodies. […] D, SKBR3 cells were treated with 10 μM PYR for 1 h, stimulated with 10 ng/ml leukemia inhibitory factor (LIF) for 30 min, and analyzed by chromatin immunoprecipitation with antibodies to STAT3 and RNA pol II (pol II). Binding at the indicated target genes was assessed by quantitative RT–PCR. Data are expressed as percent of input. […]
Cells were lysed on ice for 15 min in either radioimmunoprecipitation assay lysis buffer (Boston BioProducts) or EBC lysis buffer (50 mM Tris [pH 8.0], 250 mM NaCl, and 0.5% Nonidet-P40 [NP-40]) containing phosphatase and complete protease inhibitors (Roche). […] Immunoblots were developed, and band intensity was quantified using Fiji ([42]).

[2] = system: STAT3 target genes in U3A cells; assay: STAT3 target gene expression by qRT-PCR in U3A cells; type: cell-based, human; conditions: 10 μM 1 h, OSM 90 min
physchem = conditions: DHFR enzymatic assay medium with 5% DMSO, 37 °C, aqueous with cosolvent or surfactant or cyclodextrin, kinetic from dmso stock

CCc1nc(N)nc(N)c1-c1ccc(Cl)cc1 [pyrimethamine]
OSM-stimulated nuclear pSTAT3 or total STAT3 [1]: no effect | OSM-stimulated BCL6 expression [2]: significantly reduced | solubility (physchem): > 1000 µM
